≈ marks a conversion by molar mass, not a printed value.
How the values were obtained:
[1] = Physical (polymorphic) stability of the solid form; format: physicochemical; settings: in words, compared with the polymorphic mixture of Compound 1; stability toward conversion to a different polymorphic form
Source text: The polymorph Form I is considered a heat stable form of Compound 1. By "heat stable" or ''physically stable" is meant that the Form I is stable toward conversion to the polymorph Form II; although, it may be labile toward degradation to other compounds.
As the higher melting point polymorph, Form I has significant advantages over the polymorphic mixture of Compound 1 prepared according to known techniques. […] This, in turn, enhances the milling and compaction properties of the drug substance.

[2] = Approximate solubility in various solvents; format: physicochemical; settings: for Solubility: approximate
Source text: In addition, the lower melting point polymorph, Form II, also has significant advantages over the polymorphic mixture of Compound 1 as prepared according to known techniques. […] Form II is generally more soluble in polar and protic solvents than is Form I. Enhanced solubility of a compound will generally increase the bioavailability of that compound. When absorption of a drug is dissolution rate limited, use of the more soluble and faster dissolving form improves the rate and extent of bioavailability.

Compound | physical stability [1] | Solubility ([2]; Acetone) [µg/mL] | Solubility ([2]; Acetonitrile) [µg/mL] | Solubility ([2]; De-ionized water) [µg/mL] | Solubility ([2]; Diethyl ether) [µg/mL] | Solubility ([2]; Ethanol, absolute (100%)) [µg/mL] | Solubility ([2]; Ethyl acetate) [µg/mL] | Solubility ([2]; Hexane) [µg/mL] | Solubility ([2]; Isopropanol) [µg/mL] | Solubility ([2]; Methanol) [µg/mL] | Solubility ([2]; Polyethylene Glycol 400, NF) [µg/mL] | Solubility ([2]; Tetrahydrofuran) [µg/mL] | Solubility ([2]; Toluene) [µg/mL] | solubility in a range of organic solvents ([2]; in words, compared with Form I) | water solubility ([2]; in words, compared with Form I)
CC(=O)N(C)c1cccc(-c2ccnc3c(C(=O)c4cccs4)cnn23)c1 [Form I, N-methyl-N-(3-{3-[2-thienylcarbonyl]-pyrazol-[1,5-α]-pyrimidin-7-yl}phenyl)acetamide] | superior physical stability | 4842 (≈ 12.9 mM) | 6246 (≈ 16.6 mM) | 8.3 (≈ 0.022 mM) | 80 (≈ 0.213 mM) | 1426 (≈ 3.79 mM) | 1600 (≈ 4.25 mM) | 41 (≈ 0.109 mM) | 441 (≈ 1.17 mM) | 1740 (≈ 4.62 mM) | 3259 (≈ 8.66 mM) | 9964 (≈ 26.5 mM) | 997 (≈ 2.65 mM) | – | –
CC(=O)N(C)c1cccc(-c2ccnc3c(C(=O)c4cccs4)cnn23)c1 [Form II, N-methyl-N-(3-{3-[2-thienylcarbonyl]-pyrazol-[1,5-α]-pyrimidin-7-yl}phenyl)acetamide] | – | 6873 (≈ 18.3 mM) | 8928 (≈ 23.7 mM) | 18.8 (≈ 0.0499 mM) | 51 (≈ 0.135 mM) | 1722 (≈ 4.57 mM) | 2160 (≈ 5.74 mM) | 50 (≈ 0.133 mM) | 457 (≈ 1.21 mM) | 1915 (≈ 5.09 mM) | 10100 (≈ 26.8 mM) | 14740 (≈ 39.2 mM) | 645 (≈ 1.71 mM) | generally greater solubility in a range of organic solvents as compared to Form I | superior water solubility over Form I

Source: patent publication EP1477169A1, “Reactions of polymorphs of N-methyl-N-(3-(3-(2-thienylcarbonyl)-pyrazol-(1,5-alpha)-pyrimidin-7-yl)phenyl)acetamide” (Neurocrine Biosciences, Inc., priority 1999, dated 2001)
